Values after ≈ are worked out from the molar mass of the structure shown.

For orientation: IC50 means the concentration needed to halve the response being measured. The EC50 is the concentration needed to bring the measured effect to its halfway point. A word on the MIC: it is the least concentration at which growth counts as inhibited.

Assay [1] deals with HL-60 (acute myeloid leukemia). The assay can be described thus: Antiproliferative screening (cytostatic activity). The format is cell-based. The settings on record: Homo sapiens, HL-60; 72 h, IncuCyte imaging; read-out: IC50 HL-60. An outline of the steps: (§1)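 Cells in 10% FBS medium were exposed to four concentrations from 100 to 0.8 µM, with adherent Hap1 treated after overnight attachment and suspension DND-41 and HL-60 seeded directly onto compound. Growth was tracked over 72 h at 37 °C by real-time IncuCyte imaging every 3 h, using duplicate points averaged.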

Assay [2] concerns Hap1 (chronic myeloid leukemia). The assay can be described thus: Antiproliferative screening (cytostatic activity). The format is cell-based. The settings on record: Homo sapiens, HAP1; 72 h, IncuCyte imaging; read-out: IC50 Hap1. In short, it runs like this:
as §1

For a further assay, the system named is Sindbis Virus. In words: microbe, parasite or virus in culture. The following applies: Vero, read-out: EC50 Sindbis Virus, MTS. The format is cell-based.
The next assay has as its system Yellow Fever Virus. The assay can be described thus: microbe, parasite or virus in culture. The format is cell-based. The settings on record: Vero, read-out: EC50 Yellow Fever Virus, MTS.
Assay [3] has as its system Acinetobacter baumannii MFBF 10913. In words: Minimum biofilm eradication assay. It counts as cell-based. The protocol: (§2) MBECs of fumardiamides 4a–f and succindiamides 5a–f were determined as follows. Each well (96-well plate) was filled with 100 µl of bacterial (10^7 CFU/mL) or yeast (5 × 10^6 CFU/mL) suspension. When the inhibition of yeast biofilm formation was tested, the wells were pre-treated with fetal bovine serum (FBS) (250 µl per well). Negative controls contained broth only. Positive controls were performed using standard antimicrobial drugs gentamycin (Gen) and Amph, respectively. […] Following incubation period, each well was aspirated, washed three times and vigorously shaken to remove all non-adherent bacteria/yeast. The remaining attached cells were fixed with methanol (15 min) and the plates were left to dry overnight. Formed biofilm was stained with crystal violet (1%, 5 min). Excess stain was rinsed by placing the plate under running tap water and the plates were left to dry. Adherent cells were solubilized using ethanol. The absorbance was read at 570 nm. The MBEC value represents the lowest dilution of a compound at which bacteria fail to grow.

In assay [4] the test system is Enterococcus faecalis ATCC 29212. The assay can be described thus: Minimum biofilm eradication assay. It counts as cell-based. The protocol: as §2
Assay [5] concerns Bacillus subtilis ATCC 6633. The assay can be described thus: Minimum biofilm eradication assay. The format is cell-based. The protocol: as §2
Assay [6] deals with Streptococcus pneumoniae MFBF 10373. The assay can be described thus: Antimicrobial susceptibility assay in vitro (MIC determination). It counts as cell-based. The following applies: MFBF10373, serial microdilution, 18 h, 35 °C. The protocol:
(§3) Stock solutions of the tested compounds were prepared in DMSO (10 mg/mL). […] The absorbance was recorded at 540 nm. As a positive quality control (susceptibility of strains) tetracycline hydrochloride (TC) (Sigma-Aldrich) was added into wells.
(In general: Dilution methods test growth across graded concentrations, often in twofold steps.)

For assay [7], the system named is Bacillus cereus ATCC 11778. The description is as above. It counts as cell-based. The following applies: ATCC11778, serial microdilution, 18 h, 35 °C. The protocol:
as §3

The subject of assay [8] is Acinetobacter baumannii MFBF 10913. The description is as above. The format is cell-based. The settings on record: MFBF10913, serial microdilution, 18 h, 35 °C. The protocol: as §3
In assay [9] the test system is Bacillus subtilis ATCC 6633. The assay is described as above. It counts as cell-based. The settings on record: ATCC6633, serial microdilution, 18 h, 35 °C. The protocol: as §3
The test system of assay [10] is Streptococcus pneumonia MFBF 10373. In words: Minimum biofilm eradication assay. The format is cell-based, Streptococcus pneumoniae. The protocol: as §2
Assay [11] concerns HCT-116 (colorectal carcinoma). The assay can be described thus: Antiproliferative screening (cytostatic activity). The format is cell-based. The settings on record: Homo sapiens, HCT-116; 72 h, IncuCyte imaging; read-out: IC50 HCT-116. In short, it runs like this:
(§4)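 Cells in medium with 10% FBS, seeded and left overnight, then exposed to test compounds at four concentrations from 100 to 0.8 µM. Growth followed by imaging every 3 h, one field per well at 10×. Duplicate data points averaged.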

Assay [12] has as its system Capan-1 (pancreatic adenocarcinoma). The assay can be described thus: Antiproliferative screening (cytostatic activity). It counts as cell-based. The following applies: Homo sapiens, CAPAN-1; 72 h, IncuCyte imaging; read-out: IC50 Capan-1. An outline of the steps:
as §4

The subject of assay [13] is Z-138 (non-Hodgkin lymphoma). In words: Antiproliferative screening (cytostatic activity). It counts as cell-based. The following applies: Homo sapiens, Z-138; 72 h, IncuCyte imaging; read-out: IC50 Z-138. An outline of the steps: as §4
The subject of assay [14] is NCI-H460 (lung carcinoma). In words: Antiproliferative screening (cytostatic activity). It counts as cell-based. The settings on record: Homo sapiens, NCI-H460; 72 h, IncuCyte imaging; read-out: IC50 NCI-H460. An outline of the steps: as §4
The next assay relates to MM.1S (multiple myeloma). In words: Antiproliferative screening (cytostatic activity). It counts as cell-based. The settings on record: Homo sapiens, MM1.S; 72 h, IncuCyte imaging; read-out: IC50 MM.1S. In short, it runs like this:
as §4

In assay [15] the test system is K-562 (chronic myeloid leukemia). The assay can be described thus: Antiproliferative screening (cytostatic activity). It counts as cell-based. The following applies: Homo sapiens, K562; 72 h, IncuCyte imaging; read-out: IC50 K-562. In short, it runs like this:
as §4

Take `COc1cc(NC(C)CCCNC(=O)/C=C/C(=O)Nc2ccc(C(F)(F)F)cc2)c2ncccc2c1` (stereo not drawn) [Compound 4f, (2E)-N′-{4-[(6-Methoxyquinolin-8-yl)amino]pentyl}-N-[4-(trifluoromethyl)phenyl]but-2-enediamide]: the IC50 in [1] is over 100 µM; in assay [2], over 100 µM; in assay [11] it was over 100 µM; in [12], 79.4 µM; in [13], over 100 µM; in [14], over 100 µM. Further, the half-maximal inhibitory concentration (IC50) (in the assay with MM.1S (multiple myeloma); in [15]) was over 100 µM in each case. Also, the half-maximal effective concentration (EC50) in the assay with Sindbis Virus and in the assay with Yellow Fever Virus was over 50 µM in each case. Moreover, the MBEC in [3] is 100 µg/mL; in assay [4], 50 µg/mL; in [5], over 100 µg/mL; in assay [10], 50 µg/mL. The minimal inhibitory concentration (MIC) was 50 µg/mL (≈ 99.9 µM) in assay [6], over 100 µg/mL in assay [7], 25 µg/mL (≈ 49.9 µM) in assay [8] and over 100 µg/mL in [9].

(Values after article PMC6100582 (Molecules : A Journal of Synthetic Chemistry and Natural …, 2018).)
